Data taken from patent publication US11884711B2, “Fusion proteins of GDF15 and use thereof” (BEIJING QL BIOPHARMACEUTICAL CO., LTD., priority 2020, dated 2024).

Test system: C57BL/6 mice
Assay: In vivo food intake and body weight in C57BL/6 mice
Conditions: 30 nmol/kg subcutaneously every day for 10 days
Method: 10 week old male C57BL/6 mice were injected everyday subcutaneously with 30 nmol/kg of the fusion proteins for 10 days (n=5/group), semaglutide was studied in parallel as a control. Body weight (BW) was measured daily for each individual animal and food intake was measured daily for each entire treatment group. Day 1 and Day 10 are the first day and the last day of treatment. % BW loss=100*(BW on Day n−BW on Day 1)/(BW on Day 1). Cumulative food intake on Day n represents sum of food intake from Day 1 to Day n. Data are indicated as mean values and standard error (SEM) or pooled values. Body weight reduction on Day 11 is calculated by −1*(% BW loss of treatment group-% BW loss of vehicle group); Cumulative food intake reduction on Day 11 is calculated by −100*(cumulative food intake of treatment group−cumulative food intake of vehicle group)/cumulative food intake of vehicle group.

For semaglutide [reference compound], the “Body weight reduction at 30 nmol/kg (% reduction compared to vehicle) (Day 11)” value was 7.27% and the “Cumulative food intake reduction at 30 nmol/kg (% reduction compared to vehicle) (Day 11)” value was 11.8%.
